Holding throughout (type): in vivo
In experiment [1] the test system is TNF-α. Put plainly: Lipopolysaccharide induced TNF-α production in Balb/cJ mice. To be noted: Mus musculus, ip, 1.5 h; 10 mg/kg intraperitoneally, 30 min before LPS; 90 min after LPS; read-out: % inhibition of TNF-α production (plasma). The method, then:
Male Balb/cJ mice (Iffa Credo, France) weighing 25-33 g were randomly grouped (n=7 in test group, 7 in positive control group, 4 in negative control group). Test compounds, as well as vehicle [0.125% carboxymethyl-cellulose (Sigma, USA)], were administered to the mice intraperitoneally. Test compounds were administered at a dose of 10 mg/kg of body weight, in a volume of 10 mL/kg of body weight. Thirty minutes later, a sterile solution of lipopolysaccharide (LPS) (Sigma, USA) in saline was intraperitoneally administered at a concentration and volume of 25 μg/0.2 mL/mouse to each animal, except those in negative control. Ninety minutes following administration, all animals were sacrificed by puncturing a. carotis communis. The plasma concentration of TNF-α was determined by sandwich ELISA, using capture and detection antibodies (R&D, USA) according to manufacturer's recommendations. Results are presented in the following table as percent of inhibition of TNF-α production in comparison to the positive control (stimulated, but untreated animals).

The test system of experiment [2] is neutrophils. Briefly: Lung neutrophilia induced by bacterial lipopolysaccharide in male BALB/cJ mice: cells in BALF and lung tissue. To be noted: 2.5 mg i.p.; 24 hours after LPS. Here is the method:
(§1) Male BALB/cJ mice (Iffa Credo, France), with average weight 30 g were randomly grouped (n=7 in testing group, 8 in positive control, 7 in negative control). Mice were administered intraperitoneally (i.p.) a single dose of 5 or 2.5 mg of test compound. Two hours after administration, 2 μg of bacterial lipopolysaccharide (LPS), dissolved in PBS in a volume of 60 μL, was intranasally administered to all experimental groups except the negative control group, which received the same volume (60 μL) of vehicle PBS. Animals were sacrificed approximately 24 hours after application of LPS in order to obtain bronchoalveolar lavage fluid (BALF), which was used to determine concentrations of IL-6 and TNF-α, absolute number of cells, and the percentage of neutrophils in BALF. Results are expressed as percentage of decrease of total cell number, relative number of neutrophils, and TNF-α, and IL-6 concentration in BALF of treated animals compared to positive control (LPS stimulated, but untreated animals).
(§2) Results are expressed as percentage of decrease of total cell number, relative number of neutrophils, and TNF-alpha and IL-6 concentration in BALF of treated animals compared to positive control (LPS stimulated, but untreated animals).
Besides accumulation of inflammatory cells in BALF, the extent and anatomic site of pulmonary inflammation induced by LPS was assessed 24 hours after PBS or LPS exposure. Accumulation of granulocytes and mononuclear cells in peribronchial (PB) and perivascular (PV) lung tissue areas and in alveolar spaces was monitored following sacrifice of the animals.

Experiment [3] deals with IL-6. Briefly: Lung neutrophilia induced by bacterial lipopolysaccharide in male BALB/cJ mice: IL-6 in BALF. To be noted: 2.5 mg i.p.; 24 hours after LPS. The method, then:
as §1, §2

Experiment [4] has as its system TNF-α. Put plainly: Lung neutrophilia induced by bacterial lipopolysaccharide in male BALB/cJ mice: TNF-α in BALF. The conditions noted are these: 2.5 mg i.p.; 24 hours after LPS. The method, then:
as §1, §2

With `CC[C@H]1OC(=O)[C@H](C)[C@@H](O[C@H]2C[C@@](C)(OC)C(OC(=O)CCN(CC)CC)[C@H](C)O2)[C@H](C)[C@@H](O[C@@H]2O[C@H](C)C[C@H](N(C)C(C)=O)[C@H]2O)[C@](C)(OC)C[C@@H](C)C(=O)N[C@H](C)[C@@H](O)[C@]1(C)O` (some centres unmarked) [Example 62, 3′-N-methyl-3′-N-acetyl-4″-O-(3-diethylaminopropionyl)-6-O-methyl-9a-aza-9a-homoerythromycin A], in experiment [1], the inhibition in vivo at 10 mg/kg was 59%. Moreover, in experiment [2], the “% decrease of neutrophils in BALF” value was found to be 13% and the “% decrease of total cell no. in BALF” value is on record as 47%. In addition, in experiment [3], the “Percentage of decrease of IL-6 concentration in BALF” value amounted to 22%. The “Percentage of decrease of TNF-α concentration in BALF” value in experiment [4] was determined as 62%.

These data come from patent US8080529B2, “Macrolides with anti-inflammatory activity” (Glaxo Group Limited, priority 2005, dated 2011).
